Data on 30 compounds can be found in patent US20240116922A1, “IMIDAZO[1,2-A]PYRIDINE DERIVATIVES AS IRAK4 INHIBITORS AND THEIR USE IN THE TREATMENT OF DISEASE” (BIOGEN MA INC., priority 2020, published 2024).

For one data set, the target named is MDR1 (Homo sapiens (Human), UniProt P08183). The data set is described as follows: in vitro. The following applies: MDCK-MDR1.
For the next data set, the target named is IRAK4 (Homo sapiens (Human), UniProt Q9NWZ3). The data set is described as follows: IRAK4 MSD biochemical assay (2-hour 1 mM ATP). The following applies: 0.1 nM IRAK4, 1 mM ATP, 2 hour at room temperature.
Data set [1] is described as follows: Kinetic solubility assay (CLND), pH 6.8. It counts as physicochemical. The following applies: aqueous buffer, kinetic from dmso stock; potassium phosphate buffer pH 6.8, 2% DMSO, 24 hours at ambient temperature.

In brackets after ≈: the same amount, converted by molar mass. Structures can show the parent of a compound that is named as a salt.

IRAK4, sequence (Q9NWZ3 whole entry): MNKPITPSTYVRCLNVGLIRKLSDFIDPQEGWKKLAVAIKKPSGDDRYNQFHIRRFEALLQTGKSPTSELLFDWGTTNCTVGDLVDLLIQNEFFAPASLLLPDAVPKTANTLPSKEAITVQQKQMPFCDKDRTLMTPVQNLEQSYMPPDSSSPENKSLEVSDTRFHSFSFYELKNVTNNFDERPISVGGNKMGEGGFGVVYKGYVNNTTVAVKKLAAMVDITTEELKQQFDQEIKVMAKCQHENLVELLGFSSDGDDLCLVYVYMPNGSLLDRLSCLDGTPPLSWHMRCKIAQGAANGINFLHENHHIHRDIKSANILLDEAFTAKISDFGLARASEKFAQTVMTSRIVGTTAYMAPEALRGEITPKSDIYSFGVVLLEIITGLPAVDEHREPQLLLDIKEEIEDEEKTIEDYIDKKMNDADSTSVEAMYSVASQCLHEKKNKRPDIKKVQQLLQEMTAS
MDR1, sequence (P08183 whole entry): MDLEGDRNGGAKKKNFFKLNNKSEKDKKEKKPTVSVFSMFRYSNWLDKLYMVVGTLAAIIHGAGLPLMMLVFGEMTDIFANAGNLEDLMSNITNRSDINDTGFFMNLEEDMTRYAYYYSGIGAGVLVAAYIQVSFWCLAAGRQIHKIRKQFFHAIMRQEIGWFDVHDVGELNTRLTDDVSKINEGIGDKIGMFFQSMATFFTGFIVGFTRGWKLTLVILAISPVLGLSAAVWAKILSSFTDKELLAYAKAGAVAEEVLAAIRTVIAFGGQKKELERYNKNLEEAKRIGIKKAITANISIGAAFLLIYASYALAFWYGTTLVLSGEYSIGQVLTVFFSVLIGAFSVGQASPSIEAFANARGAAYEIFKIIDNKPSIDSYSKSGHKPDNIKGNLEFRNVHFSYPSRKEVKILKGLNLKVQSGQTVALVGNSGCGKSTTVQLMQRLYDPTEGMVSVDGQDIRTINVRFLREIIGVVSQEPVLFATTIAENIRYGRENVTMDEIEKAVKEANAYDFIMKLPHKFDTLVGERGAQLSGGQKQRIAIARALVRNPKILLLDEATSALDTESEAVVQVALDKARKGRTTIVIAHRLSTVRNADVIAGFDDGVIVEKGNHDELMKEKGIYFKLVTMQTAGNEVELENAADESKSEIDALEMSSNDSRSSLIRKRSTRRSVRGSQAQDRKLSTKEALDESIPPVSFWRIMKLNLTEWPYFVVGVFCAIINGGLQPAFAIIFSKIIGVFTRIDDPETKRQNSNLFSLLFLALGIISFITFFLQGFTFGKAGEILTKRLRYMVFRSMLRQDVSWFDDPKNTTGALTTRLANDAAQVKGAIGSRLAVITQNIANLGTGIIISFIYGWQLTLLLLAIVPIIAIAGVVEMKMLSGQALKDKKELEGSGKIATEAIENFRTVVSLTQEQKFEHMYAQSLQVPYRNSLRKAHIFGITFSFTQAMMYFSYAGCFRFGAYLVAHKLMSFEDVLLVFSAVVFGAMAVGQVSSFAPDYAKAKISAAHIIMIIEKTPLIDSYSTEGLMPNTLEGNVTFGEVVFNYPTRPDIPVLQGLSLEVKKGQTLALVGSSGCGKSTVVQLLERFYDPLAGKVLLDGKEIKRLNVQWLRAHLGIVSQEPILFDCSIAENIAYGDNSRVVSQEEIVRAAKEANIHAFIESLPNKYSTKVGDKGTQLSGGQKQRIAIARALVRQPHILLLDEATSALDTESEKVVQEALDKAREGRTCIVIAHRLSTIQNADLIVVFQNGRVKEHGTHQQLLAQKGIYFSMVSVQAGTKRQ

In general, efflux ratio refers to a quotient of directional permeabilities that is used to spot active efflux. The term IC50 denotes the concentration at which inhibition is half-maximal. High values mean lower potency, low ones higher potency. Take `CC[C@@H](C)Oc1nc2nc(C34COC(C)(C3)C4)cn2cc1C(=O)Nc1cccn([C@@H]2C[C@@H]2F)c1=O` (single isomer, unassigned) [Example 57]: on MDR1, the efflux ratio at 120 min, 1 μM stood at 7.9. Besides, the IC50 against IRAK4 was 23 nM.

Consider `CC(C)Oc1nc2nc([C@@]34CC[C@@](C)(C3)OC4)cn2cc1C(=O)Nc1cccn([C@@H]2CC23CC3)c1=O` (single isomer, unassigned) [Example 151], for which the efflux ratio at 120 min, 1 μM on MDR1 is 1.2. This compound also showed an IC50 at IRAK4 of 1.1 nM.

`CC(C)Oc1nc2nc([C@@]34CC[C@@](C)(C3)OC4)cn2cc1C(=O)Nc1cccn([C@@H]2C[C@H]2C)c1=O` (single isomer, unassigned) [Example 148]: the efflux ratio at 120 min, 1 μM on MDR1 came to 2.6. In addition, the IC50 against IRAK4 was 1.2 nM.

By kinetic solubility is commonly meant the concentration staying in solution when a stock, usually in DMSO, is diluted into the medium. Regarding `CC(C)Oc1c(C(=O)Nc2cccn([C@H]3C[C@H]3F)c2=O)cn2cc([C@@]34CC[C@@](C)(C3)OC4)nc2c1F` (single isomer, unassigned) [Example 125], the kinetic solubility at 24 h in data set [1] was 39.9 µg/mL (≈ 80 µM). The same compound returned an IC50 at IRAK4 of 0.5 nM.

With `C[C@H]1C[C@H]1n1cccc(NC(=O)c2cn3cc(C45COC(C)(C4)C5)nc3nc2OC2CCC2)c1=O` [Example 189, 7-cyclobutoxy-2-(1-methyl-2-oxabicyclo[2.1.1]hexan-4-yl)-N-(1-((1R,2S)-2-methylcyclopropyl)-2-oxo-1,2-dihydropyridin-3-yl)imidazo[1,2-a]pyrimidine-6-carboxamide trifluoroacetate], on MDR1, the efflux ratio at 120 min, 1 μM came out at 3.4. Moreover, 34.6 nM corresponded to half-maximal inhibition at IRAK4 (IC50).

Take `CC(C)Oc1nc2nc([C@]34CC[C@](C)(C3)OC4)cn2cc1C(=O)Nc1cccn([C@H]2C[C@@H]2C)c1=O` (single isomer, unassigned) [Example 142]: the solubility (kinetic) at 24 h in data set [1] came to 37 µg/mL (≈ 77.5 µM). Further, the midpoint of inhibition against IRAK4, the IC50, lay at 1.2 nM.

For the compound `CC(C)Oc1c(C(=O)Nc2ccnn(C3CC3)c2=O)cn2cc(C34COC(C)(C3)C4)nc2c1F` [Example 73, N-(2-cyclopropyl-3-oxo-2,3-dihydropyridazin-4-yl)-8-fluoro-7-isopropoxy-2-(1-methyl-2-oxabicyclo[2.1.1]hexan-4-yl)imidazo[1,2-a]pyridine-6-carboxamide], the efflux ratio at 120 min, 1 μM at MDR1 worked out at 1. In addition, at IRAK4, half-maximal inhibition (IC50) required 14 nM.

Take `CC(C)Oc1cc2nc([C@]34CC[C@](C)(C3)OC4)cn2cc1C(=O)Nc1cccn([C@@H]2C[C@@H]2C)c1=O` [Example 181, 7-isopropoxy-2-((1R,4S)-1-methyl-2-oxabicyclo[2.2.1]heptan-4-yl)-N-(1-((1R,2S)-2-methylcyclopropyl)-2-oxo-1,2-dihydropyridin-3-yl)imidazo[1,2-a]pyridine-6-carboxamide trifluoroacetate]: the efflux ratio at 120 min, 1 μM on MDR1 came out at 5.3. On IRAK4, this compound registered an IC50 of 24.9 nM.

Turning to `CC(C)Oc1c(C(=O)Nc2cccn([C@@H]3C[C@@H]3F)c2=O)cn2cc(C34COC(C)(C3)C4)nc2c1F` (racemic) [Example 91, (rac)-Cis-8-fluoro-N-(1-(2-fluorocyclopropyl)-2-oxo-1,2-dihydropyridin-3-yl)-7-isopropoxy-2-(1-methyl-2-oxabicyclo[2.1.1]hexan-4-yl)imidazo[1,2-a]pyridine-6-carboxamide], the efflux ratio at 120 min, 1 μM at MDR1 turned out to be 5.1. Inhibition on IRAK4 was half-maximal at 0.8 nM (IC50).

For `CC(C)Oc1nc2nc([C@H]3CCCOC3)cn2cc1C(=O)Nc1cccn(C2CC2)c1=O` (single isomer, unassigned) [Example 107], the efflux ratio at 120 min, 1 μM at MDR1 is 3. The compound further showed an IC50 at IRAK4 of 0.3 nM.

In the case of `CC(C)Oc1cc2nc([C@@]34CC[C@@](C)(C3)OC4)cn2cc1C(=O)Nc1cccn([C@@H]2C[C@@H]2C)c1=O` [Example 183, 7-isopropoxy-2-((1S,4R)-1-methyl-2-oxabicyclo[2.2.1]heptan-4-yl)-N-(1-((1R,2S)-2-methylcyclopropyl)-2-oxo-1,2-dihydropyridin-3-yl)imidazo[1,2-a]pyridine-6-carboxamide trifluoroacetate], the efflux ratio at 120 min, 1 μM on MDR1 came out at 2.9. For the same compound, the IC50 on IRAK4 was found to be 15.4 nM.

Take `CC(C)Oc1nc2nc(C[C@H]3CCOC3)cn2cc1C(=O)Nc1cccn(C2CC2)c1=O` (single isomer, unassigned) [Example 110]: the efflux ratio at 120 min, 1 μM at MDR1 stood at 7. The compound further displayed an IC50 against IRAK4 of 0.5 nM.

Turning to `CC[C@H](C)Oc1nc2nc(C34COC(C)(C3)C4)cn2cc1C(=O)Nc1cccn([C@@H]2C[C@@H]2F)c1=O` (single isomer, unassigned) [Example 59], the efflux ratio at 120 min, 1 μM at MDR1 was 9.4. For the same compound, at IRAK4, the IC50 turned out to be 9 nM.

`CC(C)Oc1cc2nc([C@@]34CC[C@@](C)(C3)OC4)cn2cc1C(=O)Nc1cccn(C2CC2F)c1=O` (mixture of isomers) [Example 99, N-(1-(2-fluorocyclopropyl)-2-oxo-1,2-dihydropyridin-3-yl)-7-isopropoxy-2-((1S,4R)-1-methyl-2-oxabicyclo[2.2.1]heptan-4-yl)imidazo[1,2-a]pyridine-6-carboxamide]: the kinetic solubility at 24 h in data set [1] was determined as 62 µg/mL. The compound further had an IC50 at IRAK4 of 0.4 nM.

With `CC(C)Oc1c(C(=O)Nc2cccn([C@@H]3C[C@H]3C)c2=O)cn2cc(C34COC(C)(C3)C4)nc2c1F` [Example 147, 8-fluoro-7-isopropoxy-2-(1-methyl-2-oxabicyclo[2.1.1]hexan-4-yl)-N-(1-((1R,2R)-2-methylcyclopropyl)-2-oxo-1,2-dihydropyridin-3-yl)imidazo[1,2-a]pyridine-6-carboxamide], on MDR1, the efflux ratio at 120 min, 1 μM was 1.5. This compound displayed an IC50 against IRAK4 of 15.9 nM.

Turning to `CO[C@@H]1C[C@H]1n1cccc(NC(=O)c2cn3cc(C45COC(C)(C4)C5)nc3nc2OC(C)C)c1=O` (single isomer, unassigned) [Example 137], the efflux ratio at 120 min, 1 μM at MDR1 worked out at 4.8. Moreover, on IRAK4, the IC50 is 1.4 nM.

Turning to `CC12CC(c3cn4cc(C(=O)Nc5cccn([C@@H]6C[C@@H]6F)c5=O)c(OC5CCC5)cc4n3)(CO1)C2` (single isomer, unassigned) [Example 172], at IRAK4, the IC50 came to 27 nM.

Consider `CC[C@@H](C)Oc1nc2nc([C@]34CC[C@](C)(C3)OC4)cn2cc1C(=O)Nc1cccn(C2CC2)c1=O` [Example 51, 7-((R)-sec-butoxy)-N-(1-cyclopropyl-2-oxo-1,2-dihydropyridin-3-yl)-2-((1R,4S)-1-methyl-2-oxabicyclo[2.2.1]heptan-4-yl)imidazo[1,2-a]pyrimidine-6-carboxamide], for which, at MDR1, the efflux ratio at 120 min, 1 μM is 3.1. The compound further registered an IC50 against IRAK4 of 1.8 nM.

With `O=C(Nc1cccn([C@@H]2C[C@@H]2F)c1=O)c1cn2cc(C34COC(C3)C4)nc2nc1OC1CCC1` (single isomer, unassigned) [Example 166], the efflux ratio at 120 min, 1 μM on MDR1 was 2.6. The same compound came in with an IC50 at IRAK4 of 41 nM.

`CO[C@H]1C[C@@H]1n1cccc(NC(=O)c2cn3cc(C45COC(C)(C4)C5)nc3nc2OC(C)C)c1=O` (single isomer, unassigned) [Example 138]: on MDR1, the efflux ratio at 120 min, 1 μM is 3.8. This compound also showed an IC50 at IRAK4 of 6.3 nM.

Regarding `CC(C)Oc1nc2nc(C34COC(C)(C3)C4)cn2cc1C(=O)Nc1cccn([C@@H]2CC2(C)C)c1=O` (single isomer, unassigned) [Example 78], the efflux ratio at 120 min, 1 μM on MDR1 stood at 2.1. This compound also registered an IC50 at IRAK4 of 11 nM.

Regarding `CC(C)Oc1nc2nc([C@]34CC[C@](C)(C3)OC4)cn2cc1C(=O)Nc1cccn([C@@H]2CC23CC3)c1=O` (single isomer, unassigned) [Example 153], the efflux ratio at 120 min, 1 μM at MDR1 was 1.5. Besides, the IC50 on IRAK4 amounted to 1.7 nM.

For the compound `CC(C)Oc1cc2nc(C34COC(C)(C3)C4)cn2cc1C(=O)Nc1cccn([C@@H]2C[C@@H]2C)c1=O` [Example 133, 7-isopropoxy-2-(1-methyl-2-oxabicyclo[2.1.1]hexan-4-yl)-N-(1-((1R,2S)-2-methylcyclopropyl)-2-oxo-1,2-dihydropyridin-3-yl)imidazo[1,2-a]pyridine-6-carboxamide], the efflux ratio at 120 min, 1 μM on MDR1 came out at 4.3. This compound had an IC50 against IRAK4 of 21.4 nM.

For the compound `CC(C)Oc1c(C(=O)Nc2cccn([C@@H]3C[C@@H]3F)c2=O)cn2cc([C@]34CC[C@](C)(C3)OC4)nc2c1F` (single isomer, unassigned) [Example 126], the efflux ratio at 120 min, 1 μM at MDR1 is 4.4. This compound yielded an IC50 against IRAK4 of 66.5 nM.

Regarding `CC(C)Oc1cc2nc([C@]34CC[C@](C)(C3)OC4)cn2cc1C(=O)Nc1cccn([C@@H]2C[C@@H]2F)c1=O` (single isomer, unassigned) [Example 170], the IC50 on IRAK4 was determined as 9.4 nM.

Regarding `CC(C)Oc1cc2nc(C34CCC(C3)OC4)cn2cc1C(=O)Nc1cccn(C2CC2)c1=O` (centres unmarked) [Example 38, 2-(2-oxabicyclo[2.2.1]heptan-4-yl)-N-(1-cyclopropyl-2-oxo-1,2-dihydropyridin-3-yl)-7-isopropoxyimidazo[1,2-a]pyridine-6-carboxamide], on MDR1, the efflux ratio at 120 min, 1 μM came to 7. Moreover, inhibition against IRAK4 was half-maximal at 0.3 nM (IC50).

For `CCOc1nc2nc(C34COC(C)(C3)C4)cn2cc1C(=O)Nc1cccn(C2CC2)c1=O` [Example 43, N-(1-cyclopropyl-2-oxo-1,2-dihydropyridin-3-yl)-7-ethoxy-2-(1-methyl-2-oxabicyclo[2.1.1]hexan-4-yl)imidazo[1,2-a]pyrimidine-6-carboxamide], the efflux ratio at 120 min, 1 μM at MDR1 stood at 10.3. The IC50 at IRAK4 is 1.3 nM.

Take `CC(C)Oc1nc2nc([C@]34CC[C@](C)(C3)OC4)cn2cc1C(=O)Nc1cccn([C@@H]2C[C@H]2C)c1=O` (single isomer, unassigned) [Example 141]: the kinetic solubility at 24 h in data set [1] turned out to be 43.2 µg/mL (≈ 90.5 µM). Also, the IC50 against IRAK4 is 0.4 nM.

Take `CC(C)Oc1c(C(=O)Nc2cccn([C@@H]3C[C@@H]3F)c2=O)cn2cc([C@@]34CC[C@@](C)(C3)OC4)nc2c1F` (single isomer, unassigned) [Example 124]: at IRAK4, the IC50 turned out to be 45.5 nM.

For `CC[C@H](C)Oc1cc2nc(C34COC(C)(C3)C4)cn2cc1C(=O)Nc1cccn([C@@H]2C[C@@H]2F)c1=O` (single isomer, unassigned) [Example 160], the IC50 against IRAK4 was 3.1 nM.
